US10617690B2 (priority 2015, dated 2020)
Read-outs that look alike come from different tables or passages of the source.

Columns and labels:
[1] = tested on: arthritis model induced by adjuvant; experiment: Pharmacodynamic test of an arthritis model induced by adjuvant on rats; type: in vivo, female Lewis rat; conditions: oral; for AUC (%): two consecutive weeks; for arthritis inhibitory activity and dose-effect relationship: 1, 3 and 10 mpk
[2] = tested on: arthritis model induced by collagen; conditions: oral, two consecutive weeks
JAK2 protein kinase = JAK2 protein kinase (Homo sapiens, UniProt O60674); experiment: biochemical; conditions: 12 uM ATP, 60 min;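 further: recombinant human JAK2 with ULight-labelled JAK-1(Tyr1023) peptide substrate, phosphorylation detected by TR-FRET using Eu-labelled anti-phosphotyrosine antibody, 1% DMSO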
JAK2 protein kinase, sequence (O60674 whole entry): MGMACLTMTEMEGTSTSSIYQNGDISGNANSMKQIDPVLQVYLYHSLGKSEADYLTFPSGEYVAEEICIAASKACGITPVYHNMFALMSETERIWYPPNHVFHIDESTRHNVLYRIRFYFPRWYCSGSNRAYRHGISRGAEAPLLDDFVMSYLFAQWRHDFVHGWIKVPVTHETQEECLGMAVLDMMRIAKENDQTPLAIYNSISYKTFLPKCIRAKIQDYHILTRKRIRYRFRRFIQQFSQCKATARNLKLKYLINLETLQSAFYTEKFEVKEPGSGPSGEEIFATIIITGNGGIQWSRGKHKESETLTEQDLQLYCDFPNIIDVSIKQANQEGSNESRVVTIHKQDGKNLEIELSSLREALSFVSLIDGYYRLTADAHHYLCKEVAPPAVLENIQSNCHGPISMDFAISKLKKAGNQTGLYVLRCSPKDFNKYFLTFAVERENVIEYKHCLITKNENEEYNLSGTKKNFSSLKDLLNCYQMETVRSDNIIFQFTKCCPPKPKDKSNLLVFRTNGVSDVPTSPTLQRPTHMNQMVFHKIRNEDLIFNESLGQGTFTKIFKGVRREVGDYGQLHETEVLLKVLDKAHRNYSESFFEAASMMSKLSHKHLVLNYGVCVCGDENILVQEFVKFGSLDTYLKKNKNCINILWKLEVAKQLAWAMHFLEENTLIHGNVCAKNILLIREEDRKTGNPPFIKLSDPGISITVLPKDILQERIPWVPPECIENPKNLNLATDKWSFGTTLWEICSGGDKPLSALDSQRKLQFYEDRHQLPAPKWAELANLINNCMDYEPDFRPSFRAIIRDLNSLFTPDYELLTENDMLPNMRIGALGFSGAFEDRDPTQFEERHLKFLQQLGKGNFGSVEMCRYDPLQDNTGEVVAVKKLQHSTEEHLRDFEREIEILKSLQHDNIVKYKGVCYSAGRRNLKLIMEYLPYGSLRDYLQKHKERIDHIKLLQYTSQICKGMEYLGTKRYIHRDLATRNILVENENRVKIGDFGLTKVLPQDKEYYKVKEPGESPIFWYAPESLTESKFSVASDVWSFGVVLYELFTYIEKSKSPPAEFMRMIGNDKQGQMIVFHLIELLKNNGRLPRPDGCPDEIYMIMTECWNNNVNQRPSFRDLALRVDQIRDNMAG
Source text: (§1) Recombinant humanized JAK1, JAK2 and JAK3 protease were all purchased from Life technology. LANCE Ultra ULight™-JAK-1(Tyr1023) peptide and LANCE Eu-W1024 Anti-phosphotyrosine (PT66) were both purchased from PerkinElmer. Envision (PerkinElmer) was used to read a plate.
(§2) The reading was converted into a suppression ratio as follow equation: (%)=(Min−Ratio)/(Max−Min)*100%.

JAK1 protein kinase = JAK1 protein kinase (Homo sapiens, UniProt P23458); experiment: biochemical; conditions: 38 uM ATP, 90 min
JAK1 protein kinase, sequence (P23458 whole entry): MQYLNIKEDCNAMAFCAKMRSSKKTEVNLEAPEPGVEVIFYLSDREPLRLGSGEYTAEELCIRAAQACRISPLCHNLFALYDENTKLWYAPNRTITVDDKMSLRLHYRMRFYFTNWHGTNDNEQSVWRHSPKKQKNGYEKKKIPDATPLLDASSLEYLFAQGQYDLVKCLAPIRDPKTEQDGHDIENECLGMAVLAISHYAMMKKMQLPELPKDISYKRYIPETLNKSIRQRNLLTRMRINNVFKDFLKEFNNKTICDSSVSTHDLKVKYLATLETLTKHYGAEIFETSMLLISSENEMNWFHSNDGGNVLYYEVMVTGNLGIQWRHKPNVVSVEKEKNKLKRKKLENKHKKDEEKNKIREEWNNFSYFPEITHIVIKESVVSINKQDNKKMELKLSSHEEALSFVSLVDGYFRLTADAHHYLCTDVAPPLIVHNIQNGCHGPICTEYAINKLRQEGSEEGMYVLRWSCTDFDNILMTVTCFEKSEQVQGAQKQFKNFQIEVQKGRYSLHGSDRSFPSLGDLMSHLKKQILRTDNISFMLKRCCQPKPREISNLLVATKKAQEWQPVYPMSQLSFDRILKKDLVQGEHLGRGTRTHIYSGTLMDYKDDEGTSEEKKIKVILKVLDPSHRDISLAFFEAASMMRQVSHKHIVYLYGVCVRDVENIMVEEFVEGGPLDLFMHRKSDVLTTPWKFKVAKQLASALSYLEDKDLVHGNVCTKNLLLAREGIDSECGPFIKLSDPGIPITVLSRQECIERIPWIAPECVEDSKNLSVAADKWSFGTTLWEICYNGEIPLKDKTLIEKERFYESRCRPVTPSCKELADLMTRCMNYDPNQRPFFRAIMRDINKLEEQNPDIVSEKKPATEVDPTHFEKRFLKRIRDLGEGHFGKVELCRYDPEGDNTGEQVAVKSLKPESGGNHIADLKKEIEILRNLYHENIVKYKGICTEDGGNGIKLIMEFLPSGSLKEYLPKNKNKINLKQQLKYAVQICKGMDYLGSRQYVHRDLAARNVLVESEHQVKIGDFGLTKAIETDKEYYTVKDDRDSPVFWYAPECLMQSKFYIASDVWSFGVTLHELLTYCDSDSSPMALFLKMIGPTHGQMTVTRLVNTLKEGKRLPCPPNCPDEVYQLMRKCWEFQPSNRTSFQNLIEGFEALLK
Procedure: In Vitro Activity Test of Jak1, Jak 2 and Jak 3 Kinase
Recombinant humanized JAK1, JAK2 and JAK3 […] were all purchased from Life technology. LANCE Ultra ULight™-JAK-1(Tyr1023) peptide and LANCE Eu-W1024 Anti-phosphotyrosine (PT66) were both purchased from PerkinElmer. Envision (PerkinElmer) was used to read a plate.
Three dilution of a test compound was prepared, and 11 final concentrations were obtained: 10 uM to 0.17 nM. Each concentration had two repeat wells. The content of DMSO in a detection reaction was 1%.
2 nM JAK1 protein kinase, 50 nM LANCE Ultra ULight™-JAK-1(Tyr1023) peptide, 38 uM ATP, 50 mM HEPES (pH7.5), 10 mM MgCl2, 1 mM EGTA, 2 mM DTT, and 0.01% BRIJ-35. Detection plate was White Proxiplate 384-Plus plate (PerkinElmer), the reaction was conducted for 90 min at room temperature, and reaction system was 10 ul.
10 ul detection reagent was added into the reaction plate, wherein the final concentration of LANCE Eu-W1024 Anti-phosphotyrosine (PT66) was 2 nM, the final concentration of EDTA was 10 mM, incubation was conducted for 60 min at room temperature, and the plate was read by the Envision.
The reading was converted into a suppression ratio as follow equation: (%)=([…])/(Max−Min)*100%. IC50 data was detected by 4 parametric curve fitting (Model 205 in XLFIT5, iDBS), see Table 1.

JAK3 = biological target: T1, JAK3 (Homo sapiens, UniProt P52333); experiment: In vitro activity test of JAK3 kinase (LANCE Ultra TR-FRET); type: biochemical;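 further: recombinant human JAK3 phosphorylating ULight-JAK-1(Tyr1023) peptide at 4 µM ATP, with 1% DMSO, detected by Eu-anti-phosphotyrosine TR-FRET on Envision and converted to percent inhibition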
T1 construct: purchased Life technology
T1 sequence (P52333 1-1124): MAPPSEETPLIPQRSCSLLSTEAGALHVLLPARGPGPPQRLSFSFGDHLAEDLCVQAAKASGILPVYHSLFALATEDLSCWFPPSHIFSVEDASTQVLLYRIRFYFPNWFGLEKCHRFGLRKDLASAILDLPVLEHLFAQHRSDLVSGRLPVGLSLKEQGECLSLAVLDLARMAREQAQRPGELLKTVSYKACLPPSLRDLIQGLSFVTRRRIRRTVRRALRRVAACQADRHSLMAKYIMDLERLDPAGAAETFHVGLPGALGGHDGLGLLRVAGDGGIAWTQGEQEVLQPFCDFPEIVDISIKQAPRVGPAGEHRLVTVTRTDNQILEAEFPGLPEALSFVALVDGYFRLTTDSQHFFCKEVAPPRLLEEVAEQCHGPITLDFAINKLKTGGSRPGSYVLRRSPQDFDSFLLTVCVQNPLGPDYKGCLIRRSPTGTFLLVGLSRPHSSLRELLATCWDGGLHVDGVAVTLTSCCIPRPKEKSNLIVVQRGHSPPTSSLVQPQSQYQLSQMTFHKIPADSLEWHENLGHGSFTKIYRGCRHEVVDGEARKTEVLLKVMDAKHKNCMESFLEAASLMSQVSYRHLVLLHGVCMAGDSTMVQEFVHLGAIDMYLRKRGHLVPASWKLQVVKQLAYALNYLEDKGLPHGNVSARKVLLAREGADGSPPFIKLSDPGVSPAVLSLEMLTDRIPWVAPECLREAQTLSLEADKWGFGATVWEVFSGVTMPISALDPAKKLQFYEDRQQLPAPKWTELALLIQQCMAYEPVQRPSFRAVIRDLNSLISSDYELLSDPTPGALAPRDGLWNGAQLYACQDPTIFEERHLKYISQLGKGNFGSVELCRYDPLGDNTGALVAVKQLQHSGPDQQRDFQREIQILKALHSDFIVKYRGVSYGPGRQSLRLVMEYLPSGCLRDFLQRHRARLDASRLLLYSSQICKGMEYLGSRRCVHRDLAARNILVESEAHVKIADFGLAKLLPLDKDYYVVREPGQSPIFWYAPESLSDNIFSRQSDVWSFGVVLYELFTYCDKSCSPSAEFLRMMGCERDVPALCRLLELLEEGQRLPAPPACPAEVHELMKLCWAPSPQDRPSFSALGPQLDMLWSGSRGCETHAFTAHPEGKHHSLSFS
Procedure: as §1
0.05 nM protein kinase, 50 nM LANCE Ultra ULight™-JAK-1(Tyr1023) peptide, 4 uM ATP, 50 mM HEPES (pH7.5), 10 mM MgCl2, 1 mM EGTA, 2 mM DTT, and 0.01% BRIJ-35.
as §2

[3] = Pharmacokinetics (PK) test in mice; type: in vivo, male DBA/1 mice; conditions: for AUC(0-inf) / AUC(0-t) / Vd / Cmax / Tmax / bioavailability / half-life: male, DBA/1, mouse, plasma; for Vd: read-out: Vdss; for Cmax / Tmax / bioavailability: oral; for half-life: caudal vein injection and gavage
[4] = Pharmacokinetics (PK) test in rats; type: in vivo; conditions: for AUC(0-inf) / AUC(0-t) / half-life / Vd / Cmax / Tmax / bioavailability: rat, plasma; for Vd: intravenous, read-out: Vdss; for Cmax / Tmax / bioavailability: oral

O=C(Nc1nc2cccc(-c3ccc(CN4CCS(=O)(=O)CC4)cc3)n2n1)C1CC1 [Filgotinib, reference compound]
AUC (%) ([1]; 3 mg/kg): 7.9% | AUC (%) ([2]; 15 mg/kg): 39.9%

CN(c1ncnc2[nH]ccc12)N1CCCC(C(=O)NCC(F)(F)F)C1 (stereo not shown) [WX04]
IC50 (JAK2 protein kinase): 10 to 100 nM | IC50 (JAK1 protein kinase): < 10 nM | IC50 (JAK3): 10 to 100 nM | AUC (%) ([2]; 15 mg/kg): 29% | AUC (%) ([2]; 30 mg/kg): 27%

C[C@@H]1CCN(C(=O)CC#N)C[C@@H]1N(C)c1ncnc2[nH]ccc12 [Tofacitinib, reference compound]
AUC (%) ([1]; 1 mg/kg): 19.8% | AUC (%) ([1]; 3 mg/kg): 41.6% | AUC (%) ([1]; 10 mg/kg): 49.2% | AUC (%) ([2]; 15 mg/kg): 34%

CN(c1ncnc2[nH]ccc12)N1CCCC(C(=O)NCC(F)(F)F)C1 (single isomer, unassigned) [WX06, (S or R)-1-[methyl(7H pyrrolo[2,3-d]pyrimidin-4-yl)amino]-N-(2,2,2-trifluoroethyl)piperidyl-3-formamide]
IC50 (JAK2 protein kinase): > 1000 nM | IC50 (JAK1 protein kinase): 100 to 1000 nM | IC50 (JAK3): > 1000 nM | AUC (%) ([2]; 15 mg/kg): 30.3%

CN(c1ncnc2[nH]ccc12)N1CCCC(C(=O)NCC#N)C1 (stereo not shown) [WX07, N-(cyanomethyl)-1-[methyl(7H-pyrrolo[2,3-d]pyrimidin-4-yl)amino]piperidyl-3-formamide]
AUC (%) ([1]; 1 mg/kg): 1.5% | AUC (%) ([1]; 3 mg/kg): 20.4% | AUC (%) ([1]; 10 mg/kg): 44.7% | arthritis inhibitory activity and dose-effect relationship [1]: good dose-effect relationship and arthritis inhibitory activity equivalent to Tofacitinib | IC50 (JAK2 protein kinase): 10 to 100 nM | IC50 (JAK1 protein kinase): < 10 nM | C1 [3]: 21.3 mL/min/kg | oral bioavailability and exposed quantity [3]: excellent good oral bioavailability and higher exposed quantity | AUC(0-inf) [3]: 2.48 µM·h | AUC(0-t) [3]: 2.33 µM·h | Vd ([3]; intravenous): 0.846 L/kg | Cmax [3]: 2290 nM | Tmax [3]: 30 min | bioavailability [3]: 32.9% | half-life ([3]; po): 81 min | IC50 (JAK3): < 10 nM | AUC (%) ([2]; 15 mg/kg): 52.2% | C1 [4]: 31.8 mL/min/kg | oral bioavailability and exposed quantity [4]: excellent good oral bioavailability and higher exposed quantity | AUC(0-inf) [4]: 5.75 µM·h | AUC(0-t) [4]: 5.68 µM·h | half-life [4]: 70.8 min | Vd [4]: 1.76 L/kg | Cmax [4]: 3250 nM | Tmax [4]: 20 min | bioavailability [4]: 68.6%

CN(c1ncnc2[nH]ccc12)N1CCC[C@@H](C(=O)NCC(F)(F)F)C1 (single isomer, unassigned) [WX05, (R or S)-1-[methyl(7H pyrrolo[2,3-d]pyrimidin-4-yl)amino]-N-(2,2,2-trifluoroethyl)piperidyl-3-formamide]
IC50 (JAK2 protein kinase): 10 to 100 nM | IC50 (JAK1 protein kinase): < 10 nM | C1 [3]: 57.2 mL/min/kg | oral bioavailability and exposed quantity [3]: excellent good oral bioavailability and higher exposed quantity | AUC(0-inf) [3]: 0.667 µM·h | AUC(0-t) [3]: 0.664 µM·h | half-life ([3]; intravenous): 30.9 min | Vd ([3]; intravenous): 0.959 L/kg | Cmax [3]: 1230 nM | Tmax [3]: 15 min | bioavailability [3]: 27% | IC50 (JAK3): < 10 nM | AUC (%) ([2]; 15 mg/kg): 31% | C1 [4]: 13.1 mL/min/kg | oral bioavailability and exposed quantity [4]: excellent good oral bioavailability and higher exposed quantity | AUC(0-inf) [4]: 11.5 µM·h | AUC(0-t) [4]: 11.2 µM·h | half-life [4]: 91.8 min | Vd [4]: 1.49 L/kg | Cmax [4]: 3690 nM | Tmax [4]: 60 min | bioavailability [4]: 64.4%

CN(c1ncnc2[nH]ccc12)N1CCC[C@@H](C(=O)NCC#N)C1 (single isomer, unassigned) [WX08, (R or S)—N-(cyanomethyl-1-[methyl(7H-pyrrolo[2,3-d]pyrimidin-4-yl)amino]piperidyl)-3-formamide]
AUC (%) ([1]; 1 mg/kg): 13.6% | AUC (%) ([1]; 3 mg/kg): 33.4% | AUC (%) ([1]; 10 mg/kg): 49.2% | arthritis inhibitory activity and dose-effect relationship [1]: good dose-effect relationship and generated arthritis inhibitory activity that was more effective than Filgotinib | IC50 (JAK2 protein kinase): < 10 nM | IC50 (JAK1 protein kinase): < 10 nM | C1 [3]: 26.7 mL/min/kg | oral bioavailability and exposed quantity [3]: excellent good oral bioavailability and higher exposed quantity | AUC(0-inf) [3]: 3.03 µM·h | AUC(0-t) [3]: 3 µM·h | Vd ([3]; intravenous): 0.619 L/kg | Cmax [3]: 2440 nM | Tmax [3]: 15 min | bioavailability [3]: 50.7% | half-life ([3]; po): 37.4 min | IC50 (JAK3): < 10 nM | C1 [4]: 27.1 mL/min/kg | oral bioavailability and exposed quantity [4]: excellent good oral bioavailability and higher exposed quantity | AUC(0-inf) [4]: 6.5 µM·h | AUC(0-t) [4]: 6.36 µM·h | half-life [4]: 56.9 min | Vd [4]: 1.51 L/kg | Cmax [4]: 2460 nM | Tmax [4]: 30 min | bioavailability [4]: 61%
